Assay results published in patent publication US20120277257A1, “Methods of Treating Diseases, Pharmaceutical Compositions, and Pharmaceutical Dosage Forms” (MYREXIS, INC., priority 2009, published 2012).
Where two headings read alike, the source gives them in different places.

Tests used:
Colo205 colon cancer = Colo205 colon cancer xenograft; type: in vivo, mice; conditions: daily for 21 days
[1] = test system: NCI-H69 small cell lung cancer; experiment: NCI-H69 small cell lung cancer xenograft; type: in vivo, mice; conditions: 200 mg/kg oral, daily for 27 days
[2] = Phase I clinical trial, human plasma pharmacokinetics of oral Compound 1; type: in vivo; conditions: for AUC(0-inf) / Vd/F / AUC(0-t) / Cmax / Tmax / half-life: human, plasma, po; for Vd/F: read-out: Vz/F
Experimental: A human clinical study was initiated at a starting dose of 50 mg/m^2. Subjects had recurrent cancer refractory to available systemic therapy. Compound 1 was administered daily by mouth in tablet form for 21 consecutive days in a 28 day cycle to each enrolled subject. […] Plasma was collected pre-dose only for cycle 1 day 8. […] Patients were men and women with metastatic cancer, ranged in age from 45 to 85 years, and received doses ranging from 50 mg/m^2 to 340 mg/m^2, with a total daily dose of 100-740 mg (Tables 2A and 2B).

K-562 erythroleukemia = K-562 erythroleukemia xenograft; type: in vivo, mice; conditions: daily for 18 days
HT-29 colon cancer = HT-29 colon cancer xenograft; type: in vivo, mice; conditions: 200 mg/kg oral, 5-days-on/2-days-off, after 3 cycles
[3] = test system: multiple murine xenograft models; experiment: Murine xenograft models, summary across models; type: in vivo, mice
[4] = test system: MV-4-11 acute myeloid leukemia; experiment: MV-4-11 acute myeloid leukemia xenograft; type: in vivo, mice; conditions: 200 mg/kg oral, daily for 21 days
[5] = Day 21, Cohort 4, 176-245 mg/m^2 (340-540 mg), oral daily
[6] = both sexes, 50 mg/m^2, Day 01, Cohort 1, 50 mg/m^2 (100 mg), oral daily
[7] = both sexes, 100 mg/m^2, Day 01, Cohort 2, 100 mg/m^2 (160 mg), oral daily
[8] = both sexes, 165 mg/m^2, Day 01, Cohort 3, 165 mg/m^2 (300 mg), oral daily
[9] = both sexes, 240 mg, Day 01, Cohort 6 (BID), N = 4, 240 mg, oral twice daily
[10] = both sexes, 240 mg, Day 21, Cohort 6 (BID), N = 2, 240 mg, oral twice daily
[11] = both sexes, 245 mg/m^2, Day 01, Cohort 4, 245 mg/m^2 (340-540 mg), oral daily
[12] = both sexes, 340 mg/m^2, Day 01, Cohort 5 (BID), N = 6, 340 mg/m^2 (270-370 mg), oral twice daily
[13] = both sexes, Day 21, Cohort 4, N = 6, 176-245 mg/m^2 (340-540 mg), oral daily
[14] = 50 mg/m^2, Day 01, Cohort 1, Subject 101, 50 mg/m^2 (100 mg), oral daily
[15] = 50 mg/m^2, Day 19, Cohort 1, 50 mg/m^2 (100 mg), oral daily
[16] = 50 mg/m^2, Day 19, Cohort 1, Subject 101, 50 mg/m^2 (100 mg), oral daily
[17] = 100 mg/m^2, Day 01, Cohort 2, Subject 201, 100 mg/m^2 (160 mg), oral daily
[18] = 100 mg/m^2, Day 21, Cohort 2, 100 mg/m^2 (160 mg), oral daily
[19] = 100 mg/m^2, Day 21, Cohort 2, Subject 201, 100 mg/m^2 (160 mg), oral daily
[20] = 165 mg/m^2, Day 01, Cohort 3, Subject 301, 165 mg/m^2 (300 mg), oral daily
[21] = 165 mg/m^2, Day 21, Cohort 3, 165 mg/m^2 (300 mg), oral daily
[22] = 165 mg/m^2, Day 21, Cohort 3, Subject 301, 165 mg/m^2 (300 mg), oral daily
[23] = 245 mg/m^2, Day 01, Cohort 4, N = 6, 245 mg/m^2 (340-540 mg), oral daily
[24] = 340 mg/m^2, Day 01, Cohort 5, 340 mg/m^2 (480-620 mg), oral daily
[25] = 340 mg/m^2, Day 01, Cohort 5, N = 2, 340 mg/m^2 (480-620 mg), oral daily
[26] = 340 mg/m^2, Day 21, Cohort 5 (BID), Subject 508, 340 mg/m^2 (330 mg), oral twice daily
[27] = 340 mg/m^2, Day 21, Cohort 5, 340 mg/m^2 (620 mg), oral daily
[28] = 340 mg/m^2, Day 21, Cohort 5, Subject 503, 340 mg/m^2 (620 mg), oral daily

## C[C@H](O)C(=O)N1CCC(CCn2c(Sc3cc4c(cc3Br)OCO4)nc3c(N)ncnc32)CC1 [Compound 1, (2S)-1-[4-(2-{6-amino-8-[(6-bromo-1,3-benzodioxol-5-yl)thio]-9H-purin-9-yl}ethyl)piperidin-1-yl]-1-oxopropan-2-ol]
Colo205 colon cancer; 150 mg/kg oral, p = 0.3
  TGI (tumor growth inhibition): 72% TGI (p = 0.3) 150 mg/kg;
Colo205 colon cancer; 200 mg/kg oral, p = 0.03
  TGI (tumor growth inhibition): 87% TGI (p = 0.03) 200 mg/kg
[1]; p = 0.01
  time to tumor volume 1,500 mm^3: Extended time to 1,500 mm^3
[1]; compared to 2/9 for vehicle arm
  treated mice with tumors <1,500 mm^3: (p = 0.01); 8/10 treated mice
[2]; Day 01, Cohort 1, 50 mg/m^2 (100 mg), oral daily
  CL/F: 4098 mL/h
[2]; Day 01, Cohort 2, 100 mg/m^2 (160 mg), oral daily
  CL/F: 4343 mL/h
[2]; Day 01, Cohort 3, 165 mg/m^2 (300 mg), oral daily
  CL/F: 2405 mL/h
[2]; Day 01, Cohort 4, 245 mg/m^2 (340-540 mg), oral daily
  CL/F: 3118 mL/h
[2]; Day 01, Cohort 5 (BID), 340 mg/m^2 (270-370 mg), oral twice daily
  CL/F: 2517 mL/h
[2]; Day 01, Cohort 5, 340 mg/m^2 (480-620 mg), oral daily
  CL/F: 2500 mL/h
[2]; Day 01, Cohort 6 (BID), 240 mg, oral twice daily
  CL/F: 5956 mL/h
[2]; Day 19, Cohort 1, 50 mg/m^2 (100 mg), oral daily
  CL/F: 4547 mL/h
[2]; Day 21, Cohort 2, 100 mg/m^2 (160 mg), oral daily
  CL/F: 3213 mL/h
[2]; Day 21, Cohort 3, 165 mg/m^2 (300 mg), oral daily
  CL/F: 1502 mL/h
[2]; [5]
  CL/F: 3509 mL/h
  AUC(0-inf): 202000 ng·h/mL
  Vd/F: 77.9 L
[2]; Day 21, Cohort 5 (BID), 340 mg/m^2 (330 mg), oral twice daily
  CL/F: 4746 mL/h
[2]; Day 21, Cohort 5, 340 mg/m^2 (620 mg), oral daily
  CL/F: 1323 mL/h
[2]; Day 21, Cohort 6 (BID), 240 mg, oral twice daily
  CL/F: 4003 mL/h
[2]; [6]
  AUC(0-inf): 24400 ng·h/mL
  Vd/F: 50.5 L
[2]; [7]
  AUC(0-inf): 36800 ng·h/mL
  Vd/F: 61.6 L
[2]; both sexes, 100 mg/m^2, Day 01, Cohort 2, 100 mg/m^2 (160 mg), oral daily, read-out: AUC(0-24)
  AUC(0-t): 29900 ng·h/mL
[2]; [8]
  AUC(0-inf): 125000 ng·h/mL
  Vd/F: 40 L
[2]; both sexes, 165 mg/m^2, Day 01, Cohort 3, 165 mg/m^2 (300 mg), oral daily, read-out: AUC(0-24)
  AUC(0-t): 91800 ng·h/mL
[2]; [9]
  Cmax: 6250 ng/mL
  Tmax: 1 h
  half-life: 5.5 h
[2]; [10]
  Cmax: 9200 ng/mL
  Tmax: 1.5 h
  half-life: 6.2 h
[2]; [11]
  AUC(0-inf): 143000 ng·h/mL
  Vd/F: 61.4 L
[2]; both sexes, 245 mg/m^2, Day 01, Cohort 4, 245 mg/m^2 (340-540 mg), oral daily, read-out: AUC(0-24)
  AUC(0-t): 99100 ng·h/mL
[2]; [12]
  Cmax: 8120 ng/mL
  Tmax: 2 h
  half-life: 7.5 h
[2]; [13]
  Cmax: 9270 ng/mL
  Tmax: 2 h
  half-life: 13.2 h
[2]; human cancer patients
  oral bioavailability: orally bioavailable
[2]; human patients, oral tablets
  increase in drug levels with increasing dose: more-than-proportional increase
[2]; 50 mg/m^2, Day 01, Cohort 1, 50 mg/m^2 (100 mg), oral daily, read-out: AUC(0-24)
  AUC(0-t): 20600 ng·h/mL
[2]; [14]
  Cmax: 1900 ng/mL
  Tmax: 2 h
  half-life: 8.5 h
[2]; [15]
  AUC(0-inf): 30800 ng·h/mL
  Vd/F: 88 L
[2]; 50 mg/m^2, Day 19, Cohort 1, 50 mg/m^2 (100 mg), oral daily, read-out: AUC(0-24)
  AUC(0-t): 22000 ng·h/mL
[2]; [16]
  Cmax: 1700 ng/mL
  Tmax: 1 h
  half-life: 13.4 h
[2]; [17]
  Cmax: 2950 ng/mL
  Tmax: 2 h
  half-life: 9.8 h
[2]; [18]
  AUC(0-inf): 67300 ng·h/mL
  Vd/F: 52 L
[2]; 100 mg/m^2, Day 21, Cohort 2, 100 mg/m^2 (160 mg), oral daily, read-out: AUC(0-24)
  AUC(0-t): 49800 ng·h/mL
[2]; [19]
  Cmax: 3180 ng/mL
  Tmax: 6 h
  half-life: 11.2 h
[2]; [20]
  Cmax: 6870 ng/mL
  Tmax: 4 h
  half-life: 11.5 h
[2]; [21]
  AUC(0-inf): 308000 ng·h/mL
  Vd/F: 30.4 L
[2]; 165 mg/m^2, Day 21, Cohort 3, 165 mg/m^2 (300 mg), oral daily, read-out: AUC(0-24)
  AUC(0-t): 200000 ng·h/mL
[2]; [22]
  Cmax: 11800 ng/mL
  Tmax: 8 h
  half-life: 14 h
[2]; 240 mg, Day 01, Cohort 6 (BID), 240 mg, oral twice daily, based on a single 12-hour dosing interval
  AUC(0-inf): 55000 ng·h/mL
[2]; 240 mg, Day 01, Cohort 6 (BID), 240 mg, oral twice daily, read-out: AUC(0-12)
  AUC(0-t): 38200 ng·h/mL
[2]; 240 mg, Day 01, Cohort 6 (BID), 240 mg, oral twice daily
  Vd/F: 39.6 L
[2]; 240 mg, Day 21, Cohort 6 (BID), 240 mg, oral twice daily, based on a single 12-hour dosing interval
  AUC(0-inf): 95100 ng·h/mL
[2]; 240 mg, Day 21, Cohort 6 (BID), 240 mg, oral twice daily, read-out: AUC(0-12)
  AUC(0-t): 67600 ng·h/mL
[2]; 240 mg, Day 21, Cohort 6 (BID), 240 mg, oral twice daily
  Vd/F: 34.6 L
[2]; [23]
  Cmax: 7840 ng/mL
  Tmax: 2.5 h
  half-life: 10.8 h
[2]; 340 mg/m^2, Day 01, Cohort 5 (BID), 340 mg/m^2 (270-370 mg), oral twice daily, based on a single 12-hour dosing interval
  AUC(0-inf): 107000 ng·h/mL
[2]; 340 mg/m^2, Day 01, Cohort 5 (BID), 340 mg/m^2 (270-370 mg), oral twice daily, read-out: AUC(0-12)
  AUC(0-t): 62100 ng·h/mL
[2]; 340 mg/m^2, Day 01, Cohort 5 (BID), 340 mg/m^2 (270-370 mg), oral twice daily
  Vd/F: 28.4 L
[2]; [24]
  AUC(0-inf): 334000 ng·h/mL
  Vd/F: 51.4 L
[2]; 340 mg/m^2, Day 01, Cohort 5, 340 mg/m^2 (480-620 mg), oral daily, read-out: AUC(0-24)
  AUC(0-t): 233000 ng·h/mL
[2]; [25]
  Cmax: 16300 ng/mL
  Tmax: 3 h
  half-life: 14.1 h
[2]; 340 mg/m^2, Day 21, Cohort 5 (BID), 340 mg/m^2 (330 mg), oral twice daily, based on a single 12-hour dosing interval
  AUC(0-inf): 96300 ng·h/mL
[2]; 340 mg/m^2, Day 21, Cohort 5 (BID), 340 mg/m^2 (330 mg), oral twice daily, read-out: AUC(0-12)
  AUC(0-t): 69500 ng·h/mL
[2]; 340 mg/m^2, Day 21, Cohort 5 (BID), 340 mg/m^2 (330 mg), oral twice daily
  Vd/F: 45.7 L
[2]; [26]
  Cmax: 11000 ng/mL
  Tmax: 1 h
  half-life: 6.7 h
[2]; [27]
  AUC(0-inf): 610000 ng·h/mL
  Vd/F: 36.8 L
[2]; 340 mg/m^2, Day 21, Cohort 5, 340 mg/m^2 (620 mg), oral daily, read-out: AUC(0-24)
  AUC(0-t): 363000 ng·h/mL
[2]; [28]
  Cmax: 25600 ng/mL
  Tmax: 1 h
  half-life: 19.3 h
[2]; Day 21, Cohort 4, 176-245 mg/m^2 (340-540 mg), oral daily, read-out: AUC(0-24)
  AUC(0-t): 127000 ng·h/mL
K-562 erythroleukemia; 150 mg/kg oral, p = 0.14
  TGI (tumor growth inhibition): 82% TGI (p = 0.14) 150 mg/kg,
K-562 erythroleukemia; 200 mg/kg oral, p = 0.05
  TGI (tumor growth inhibition): 97% TGI (p = 0.05)
HT-29 colon cancer
  TGI (tumor growth inhibition): 68% TGI after 3 cycles
[3]; 200 mg/kg oral, various xenograft models
  tumor regression, maximum over models: up to 50%
[3]; xenografted mice dosed orally with Compound 1
  weight loss of animals: no significant weight loss
[4]
  tumor regression: 50% regression
